Results reported in US12421249B2, “Inhibitors of APOL1 and methods of using same” (Vertex Pharmaceuticals Incorporated, priority 2020, dated 2025).

Target: T1, APOL1 (Homo sapiens, UniProt O14791)
T1 sequence (O14791 1-398 S342G/I384M): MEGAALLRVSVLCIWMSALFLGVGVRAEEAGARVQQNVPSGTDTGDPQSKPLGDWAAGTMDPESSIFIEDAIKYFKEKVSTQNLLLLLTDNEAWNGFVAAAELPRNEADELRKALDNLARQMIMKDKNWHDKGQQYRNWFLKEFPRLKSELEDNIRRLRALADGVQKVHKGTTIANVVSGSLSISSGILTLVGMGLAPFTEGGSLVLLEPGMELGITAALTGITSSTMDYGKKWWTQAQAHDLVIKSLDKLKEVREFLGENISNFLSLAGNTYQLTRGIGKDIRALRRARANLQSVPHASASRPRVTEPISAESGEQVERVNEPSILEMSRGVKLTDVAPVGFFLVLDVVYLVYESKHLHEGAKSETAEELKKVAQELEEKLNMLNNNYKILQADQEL
Test: Multi-Tox Assay (MultiTox-Fluor Multiplex Cytotoxicity Assay in tet-inducible APOL1 T-REx-HEK293 cells; Table 46 does not say which APOL1 variant G0/G1/G2)
Type: cell-based
Settings: APOL1 variant not given; for IC50: IP50 = IC50 for cell proliferation

Row | Structure (SMILES) | Multi-Tox Assay Max Activity (%) | IC50
1 | C[C@H]1C[C@@]2(C[C@@H](c3cn(Cc4cnc5cnccn45)nn3)N1)OC[C@@H](O)c1cc(Cl)sc12 [Compound 243] | 98.0% | 50 to 500 nM
2 | C[C@H]1C[C@@]2(C[C@@H](c3cn(CCO)nn3)N1)OC[C@@H](O)c1cc(Cl)sc12 [Compound 244] | 100.0% | 50 to 500 nM
3 | COc1ccc(Cn2cc([C@@H]3C[C@]4(C[C@H](C)N3)OC[C@@H](O)c3cc(Cl)sc34)nn2)cc1F [Compound 245] | 99.0% | < 50 nM
4 | C[C@H]1C[C@@]2(C[C@@H](c3cn(C[C@@H](O)CO)nn3)N1)OC[C@@H](O)c1cc(Cl)sc12 [Compound 246] | 97.0% | 50 to 500 nM
5 | C[C@H]1C[C@@]2(C[C@@H](c3cn(CC(C)(C)O)nn3)N1)OC[C@@H](O)c1cc(Cl)sc12 [Compound 247] | – | 50 to 500 nM
6 | C[C@H]1C[C@@]2(C[C@@H](c3cn(Cc4cncs4)nn3)N1)OC[C@@H](O)c1cc(Cl)sc12 [Compound 248] | – | < 50 nM
7 | C[C@H]1C[C@@]2(C[C@@H](c3cn(Cc4ccc5nc(O)[nH]c5c4)nn3)N1)OC[C@@H](O)c1cc(Cl)sc12 [Compound 249] | 92.0% | 50 to 500 nM
8 | C[C@H]1C[C@@]2(C[C@@H](c3cn(CC4CCC4)nn3)N1)OC[C@@H](O)c1cc(Cl)sc12 [Compound 250] | 95.0% | < 50 nM
9 | Cc1nccn1CCCn1cc([C@@H]2C[C@]3(C[C@H](C)N2)OC[C@@H](O)c2cc(Cl)sc23)nn1 [Compound 251] | 99.0% | 50 to 500 nM
10 | C[C@H]1C[C@@]2(C[C@@H](c3cn(CCC(C)(C)O)nn3)N1)OC[C@@H](O)c1cc(Cl)sc12 [Compound 252] | 100.0% | < 50 nM
11 | C[C@H]1C[C@@]2(C[C@@H](c3cn(Cc4ccc(C#N)cc4)nn3)N1)OC[C@@H](O)c1cc(Cl)sc12 [Compound 253] | 100.0% | < 50 nM
12 | C[C@H]1C[C@@]2(C[C@@H](c3cn(CC4CCC(=O)NC4)nn3)N1)OC[C@@H](O)c1cc(Cl)sc12 (stereo partly drawn) [Compound 254] | 92.0% | > 500 nM
13 | C[C@H]1C[C@@]2(C[C@@H](c3cn(CC#N)nn3)N1)OC[C@@H](O)c1cc(Cl)sc12 [Compound 255] | 100.0% | 50 to 500 nM
14 | CC(CO)Cn1cc([C@@H]2C[C@]3(C[C@H](C)N2)OC[C@@H](O)c2cc(Cl)sc23)nn1 (stereo partly drawn) [Compound 256] | 96.0% | 50 to 500 nM
15 | CCOCCn1cc([C@@H]2C[C@]3(C[C@H](C)N2)OC[C@@H](O)c2cc(Cl)sc23)nn1 [Compound 257] | – | < 50 nM
16 | CNC(=O)C(C)Cn1cc([C@@H]2C[C@]3(C[C@H](C)N2)OC[C@@H](O)c2cc(Cl)sc23)nn1 (stereo partly drawn) [Compound 258] | 98.0% | 50 to 500 nM
17 | C[C@H]1C[C@@]2(C[C@@H](c3cn(Cc4ccc(O)cc4)nn3)N1)OC[C@@H](O)c1cc(Cl)sc12 [Compound 259] | 100.0% | 50 to 500 nM
18 | Cc1cccc(OCC(O)Cn2cc([C@@H]3C[C@]4(C[C@H](C)N3)OC[C@@H](O)c3cc(Cl)sc34)nn2)c1 (stereo partly drawn) [Compound 260] | 99.0% | < 50 nM
19 | Cc1ccccc1C(O)Cn1cc([C@@H]2C[C@]3(C[C@H](C)N2)OC[C@@H](O)c2cc(Cl)sc23)nn1 (stereo partly drawn) [Compound 261] | 100.0% | 50 to 500 nM
20 | C[C@H]1C[C@@]2(C[C@@H](c3cn(CCc4ccncn4)nn3)N1)OC[C@@H](O)c1cc(Cl)sc12 [Compound 262] | 99.0% | 50 to 500 nM
21 | COC(=O)Cn1cc([C@@H]2C[C@]3(C[C@H](C)N2)OC[C@@H](O)c2cc(Cl)sc23)nn1 [Compound 263] | – | > 500 nM
22 | CC(CO)CCn1cc([C@@H]2C[C@]3(C[C@H](C)N2)OC[C@@H](O)c2cc(Cl)sc23)nn1 (stereo partly drawn) [Compound 264] | 100.0% | < 50 nM
23 | C[C@H]1C[C@@]2(C[C@@H](c3cn(CC4CCS(=O)(=O)C4)nn3)N1)OC[C@@H](O)c1cc(Cl)sc12 (stereo partly drawn) [Compound 265] | 99.0% | 50 to 500 nM
